The values below come from patent US20250090510A1, “eIF4G1-eIF1 INHIBITORS AND USE THEREOF” (YEDA RESEARCH AND DEVELOPMENT CO. LTD., priority 2022, published 2025).

In test [1] the test system is 5′UTR length-dependent translation in HEK293T cells. Briefly: Firefly luciferase reporters with long (354 nt) and short (111 nt) 5′UTR. The test is classed as cell-based, human. The conditions noted are these: 5 μM, 16 h. The procedure: FIGS. 5A-D: 5′UTR length-dependent translational control by the eIF1-eIF4G1. […] The asterisks denote a statistically significant difference. **p<0.01, ****p<0.0001. (5B) A scheme of the firefly reporter genes that are driven by long (354 nt) and short (111 nt) 5′ UTR length, is shown on the top. HEK293T cells were transfected with these reporter genes. After 4 h, transfected cells were treated with DMSO, i14G1-10 (5 μM), or i14G1-12 (5 μM) for 16 h and analyzed for firefly luciferase activities. The graph presents the normalized luminescence activity of the long 5′UTR and the short 5′UTR reporters in the indicated treatments. The data are shown as mean±SEM, n=6. The asterisks denote statistically significant difference compared to DMSO, according to Student's t-tests (one-tailed, paired). *p<0.05; **p<0.01. (5C-D) HEK293T cells were treated with DMSO, i14G1-10, and i14G1-12 for 3 h, lysed, and subjected to sucrose gradient sedimentation and fractionation. Fractions were pooled according to polysome profile as free (grey), light (blue), and heavy (yellow) polysomal fractions. cDNA was prepared from each fraction pool and real-time PCR was performed for the indicated TISU genes (5C) or histone genes (5D). The data are shown as mean±SEM, n=3. The asterisks denote statistically significant difference compared to DMSO, according to Student's t-tests (one-tailed, paired), *p<0.05; **p<0.01.
Since both eIF1 and eIF4G1 are important for scanning, the relationship between the translational effects of the inhibitors and the 5′UTR length was examined. […] To investigate further the link between the effect of the drug and 5′UTR length, we used two firefly luciferase reporters we used that differ only in their 5′UTR length: a short 5′UTR with 111 nucleotides and a long 5′UTR with 354 nucleotides. […] These findings confirm the inhibitory effect of these compounds on the scanning promoting activity of the eIF1-eIF4G1 complex.
On the technique in general: Reporter assays use an easily measured gene product as a stand-in for the process of interest.

The target in a further test is T1, eIF1-eIF4G1 complex (Homo sapiens, UniProt Q04637).
T1 construct: co-immunoprecipitation of endogenous eIF4G1 in HEK293T cells expressing HA-eIF1 or HA-eIF4E was performed; endogenous in cells; host or cells: HEK293T (eIF4G1 endogenous; HA-eIF1 transfected)
T1 sequence (Q04637 whole entry, one chain of several): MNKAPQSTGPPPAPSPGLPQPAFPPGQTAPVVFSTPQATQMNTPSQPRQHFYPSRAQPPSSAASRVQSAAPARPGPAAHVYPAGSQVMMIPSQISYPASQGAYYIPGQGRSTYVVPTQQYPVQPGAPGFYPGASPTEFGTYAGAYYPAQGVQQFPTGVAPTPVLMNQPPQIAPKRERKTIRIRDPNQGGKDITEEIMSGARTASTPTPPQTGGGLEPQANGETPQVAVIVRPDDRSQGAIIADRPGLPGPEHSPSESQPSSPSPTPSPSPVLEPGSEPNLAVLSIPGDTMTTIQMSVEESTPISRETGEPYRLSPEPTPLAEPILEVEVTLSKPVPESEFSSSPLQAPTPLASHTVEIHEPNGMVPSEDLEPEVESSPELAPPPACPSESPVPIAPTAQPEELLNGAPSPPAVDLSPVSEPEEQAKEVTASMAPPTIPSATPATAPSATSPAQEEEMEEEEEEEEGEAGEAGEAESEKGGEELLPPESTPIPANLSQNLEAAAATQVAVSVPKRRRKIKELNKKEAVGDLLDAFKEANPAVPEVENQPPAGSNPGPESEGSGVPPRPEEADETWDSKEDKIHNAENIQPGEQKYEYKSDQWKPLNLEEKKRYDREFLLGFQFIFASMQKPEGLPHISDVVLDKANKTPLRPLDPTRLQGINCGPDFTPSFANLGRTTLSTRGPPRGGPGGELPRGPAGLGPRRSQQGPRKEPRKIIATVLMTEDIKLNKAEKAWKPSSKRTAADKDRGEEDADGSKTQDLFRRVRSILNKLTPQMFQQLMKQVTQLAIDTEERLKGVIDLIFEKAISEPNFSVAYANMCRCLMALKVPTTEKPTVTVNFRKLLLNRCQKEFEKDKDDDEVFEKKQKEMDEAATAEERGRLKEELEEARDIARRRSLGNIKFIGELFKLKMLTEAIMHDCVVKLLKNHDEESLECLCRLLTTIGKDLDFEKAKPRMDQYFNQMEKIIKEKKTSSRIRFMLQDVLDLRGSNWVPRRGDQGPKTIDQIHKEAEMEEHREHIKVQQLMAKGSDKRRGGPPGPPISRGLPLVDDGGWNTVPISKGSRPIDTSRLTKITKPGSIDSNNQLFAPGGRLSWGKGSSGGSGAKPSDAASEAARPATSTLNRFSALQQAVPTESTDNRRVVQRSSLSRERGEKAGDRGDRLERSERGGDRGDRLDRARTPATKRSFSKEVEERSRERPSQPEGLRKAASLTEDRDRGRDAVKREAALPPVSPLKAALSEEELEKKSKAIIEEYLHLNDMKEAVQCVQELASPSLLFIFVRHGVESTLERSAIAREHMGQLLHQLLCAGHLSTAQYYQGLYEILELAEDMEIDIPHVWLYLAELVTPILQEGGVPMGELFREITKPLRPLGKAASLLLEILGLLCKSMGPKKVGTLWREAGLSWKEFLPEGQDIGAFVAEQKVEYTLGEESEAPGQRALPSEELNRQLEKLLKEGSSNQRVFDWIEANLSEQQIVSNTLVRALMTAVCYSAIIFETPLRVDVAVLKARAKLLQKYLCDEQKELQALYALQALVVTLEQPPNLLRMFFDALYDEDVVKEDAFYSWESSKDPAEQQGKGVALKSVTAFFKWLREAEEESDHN
In words: Co-immunoprecipitation of endogenous eIF4G1 with HA-eIF1. The test is classed as cell-based. The conditions noted are these: HEK293T; i14G1-10 20 μM, i14G1-12 10 μM; 4 h. The procedure:
FIGS. 2A-C: The effect of i14G1-10 and i14G1-12 on eIF1-eIF4G1 and eIF4E-eIF4G1 complexes. (2A-B) HA-eIF1 and HA-eIF4E were each transfected into HEK293T cells and 48 h after transfection cells were treated with DMSO or i14G1-10 (2A) or i14G1-12 (2B) for 4 h, followed by immunoprecipitation of HA-eIF1 or HA-eIF4E using anti-HA-agarose beads. Western blot was run to check co-immunoprecipitation of endogenous eIF4G1 with HA-eIF1 or HA-eIF4E. The graphs represent the co-immunoprecipitation of eIF4G1 with HA-eIF1 (right) or HA-eIF4E (left). Co—IP data shown as mean±SEM of 4-7 independent experiments. The asterisks denote statistically significant difference compared to DMSO, according to Student's t-tests (one-tailed, paired). *p<0.05. (2C) HEK293T cells were treated with DMSO, i14G1-10, or i14G1-12 for 4 h, followed by cell lysis. Respective cell lysates were incubated with cap analog (γ-Aminohexyl-m7GTP) beads for 2 h to precipitate bound eIF4E. Western blot was performed to check co-precipitation of eIF4G1 along with eIF4E on the cap-analog beads. The graph represents the binding fraction of eIF4G1 and eIF4E to the cap-analog beads (mean±SEM) with DMSO (black), i14G1-10 (blue), and i14G1-12 (red), n=6. The asterisks denote statistically significant difference compared to DMSO, according to Student's t-tests (one-tailed, paired). *p<0.05; **p<0.01.
Co-immunoprecipitation. HEK293T cells were transfected with 5 μg of HA-eIF1 or HA-eIF4E plasmids along with 10 ng GFP plasmid to check for transfection efficiency using Jetprime reagent as per manufacturer's protocol. After 48 h, HA-eIF1 and HA-eIF4E expressing HEK293T cells were incubated with DMSO, i14G1-10 (20 μM), and […] (10 μM). 4 h later, cells were lysed using IP buffer (20 mM Tris pH8, 125 mM NaCl, 10% glycerol, 50 mM NaF, 1 mM […], 0.5% NP-40, and 0.2 mM EDTA) supplemented with fresh protease inhibitor cocktail (1:100) and PMSF 200 μM (1:100). Protein extract was taken for immunoprecipitation using either monoclonal anti-HA-agarose antibody (Sigma) or control IgG antibody in IP buffer, at 4° C. for 2 hours. […]

For the compound `O=C(/C=C/Sc1ccc(C(F)(F)F)cn1)c1ccccc1` [i14G1-10], in test [1], the “luciferase reporter expression driven by the longer 5′UTR (354 nucleotides)” value is given as “significantly decreased” and the “luciferase reporter expression driven by the shorter 5′UTR (111 nucleotides)” value is reported as “did not affect”. The “reduction in eIF4G1 binding to HA-eIF1” value at eIF1-eIF4G1 complex was determined as 50%.
For the compound `Cn1ccnc1S/C(=C/C=C(C#N)C#N)c1ccc(Cl)cc1` [i14G1-12], in test [1], the “luciferase reporter expression driven by the longer 5′UTR (354 nucleotides)” value is on record as “significantly decreased” and the “luciferase reporter expression driven by the shorter 5′UTR (111 nucleotides)” value is listed as “did not affect”. Further, at eIF1-eIF4G1 complex, the “reduction in eIF4G1 binding to HA-eIF1” value was 25%.
